From patent US20200268703A1, “MEDICINE FOR TREATING ADVANCED OR RECURRENT CANCER PATIENT BEING NON-RESPONSIVE OR NON-TOLERANT TO STANDARD CHEMOTHERAPY AND INCURABLE AND UNRESECTABLE” (HYOGO COLLEGE OF MEDICINE, priority 2017, published 2020)
“And” between values parts separate entries of the source, which are not always exact repeats. Identical values can stand only once.

Tested on: advanced or recurrent gastric cancer which is non-responsive or non-tolerant to standard chemotherapy and incurable and unresectable
Test: Clinical trial of propagermanium in patients with advanced or recurrent gastric cancer (OS, PFS, lung metastasis imaging)
Type: in vivo, human
Conditions: for OS / PFS: 30 mg orally per day
Method: 30 mg of propagermanium [trade name: SEROCION (registered trademark), produced by SANWA KAGAKU KENKYUSHO CO., LTD.] was administered orally in three divided doses per day after meals to 13 patient cases (P-1 to P-13) who were diagnosed as advanced or recurrent gastric cancer which is non-responsive or non-tolerant to standard chemotherapy [gastric cancer treatment guideline fourth edition (edited by Japan Gastric cancer Association, revised in May 2014)] and incurable and unresectable, and a clinical trial was conducted with overall survival (hereinafter also referred to as “OS”) and progression-free survival (hereinafter also referred to as “PFS”) as evaluation items. This clinical trial was conducted under an approval of Ethics Committee of Hyogo College of Medicine (No. 1911). The ECOG performance status (hereinafter also referred to as “PS”), the OS, and the PFS of 13 patient cases are shown in Table 1.
On the other hand, in Hyogo College of Medicine Hospital from 2009 to 2011, in 62 cases which were diagnosed as advanced gastric cancer which is non-responsive or non-tolerant to standard chemotherapy and incurable and unresectable and for which palliative care (Best Supportive Care; hereinafter “BSC”) to reduce pain was provided, the median of OS from the time when a doctor explained BSC to the patient was 22 days.
13 Patient cases in which the propagermanium was administered and 62 patient cases in which the BSC was provided were divided into two groups of (A) 0 and 1 and (B) 2 and 3 according to PS thereof. In the two groups, medians of the OS in the propagermanium administration examples and BSC examples were compared. As a result, in the patient groups whose PS was (A) 0 and 1, the median of OS in the BSC examples was 23.5 days, whereas the median of OS in the propagermanium administration examples was 163 days. The survival time was extended approximately 7 times compared to the BSC examples. […] Accordingly, it was confirmed that the survival days were extended compared to the BSC examples.
In 13 patient cases in which the propagermanium was administered, mean values of OS were compared according to the presence and absence of the peritoneal metastasis (Table 2 and FIG. 4). As a result, the mean value of OS of 8 patient cases with the peritoneal metastasis was 81.1 days, whereas the mean value of OS of 5 patient cases without the peritoneal metastasis was 164.7 days. […] In addition, 13 patient cases in which the propagermanium was administered were divided into two groups of (C) 0 and 1 and (D) 2 and 3 according to the PS thereof. In the two groups, mean values of the OS were compared according to the presence or absence of the peritoneal metastasis (Table 2 and FIG. 4). As a result, in the patient group whose PS was (C) 0 and 1, the mean value of OS of 4 cases with the peritoneal metastasis was 139 days, whereas the mean value of OS of 3 cases without the peritoneal metastasis was 273 days. […] On the other hand, in the patient group whose PS was (D) 2 and 3, the mean value of OS of 4 cases with the peritoneal metastasis was 37.8 days, whereas the mean value of OS of 2 cases without the peritoneal metastasis was 56.3 days.

## propagermanium
13 patient cases
  Median of PFS: 49 days
13 patient cases, BSC examples (62 cases) 22 days
  Median of OS: 73 days
13 propagermanium cases versus 62 BSC cases
  Kaplan Meier survival curves of OS versus BSC (FIG. 1): significant life prolongation effect
(C) PS 0 and 1, with peritoneal metastasis, 4 cases
  Mean value of OS: 139 days and 139 (4) days
(C) PS 0 and 1, without peritoneal metastasis, 3 cases
  Mean value of OS: 273 days and 273 (3) days
(D) PS 2 and 3, with peritoneal metastasis, 4 cases
  Mean value of OS: 37.8 days and 37.8 (4) days
(D) PS 2 and 3, without peritoneal metastasis, 2 cases
  Mean value of OS: 56.3 days and 56.3 (2) days
All 13 propagermanium patient cases
  OS without versus with peritoneal metastasis: significant life prolongation effect
All patients, with peritoneal metastasis, 8 cases
  Mean value of OS: 81.1 days and 81.1 (8) days
All patients, without peritoneal metastasis, 5 cases
  Mean value of OS: 164.7 days and 164.7 (5) days
Patient P-1, PS 2
  OS: 76 days
  PFS: 56 days
Patient P-2, PS 3
  OS: 34 days
  PFS: 3 days
Patient P-3, PS 0
  OS: 344 days
  PFS: 336 days
Patient P-4, PS 2
  OS: 72 days
  PFS: 28 days
Patient P-5, 357th day after starting administration
  Lesion site of lung (lung metastasis), imaging (FIG. 5): scar was formed
Patient P-5, PS 1
  PFS: 392 days
Patient P-5, from the 35th day after starting administration
  Lesion site of lung (lung metastasis), imaging (FIG. 5): reduction was observed
Patient P-6, PS 3
  OS: 36 days
  PFS: 22 days
Patient P-7, PS 0
  OS: 83 days
  PFS: 49 days
Patient P-8, PS 1
  OS: 73 days
  PFS: 73 days
Patient P-9, PS 3
  OS: 30 days
  PFS: 21 days
Patient P-10, PS 2
  OS: 11 days
  PFS: 7 days
Patient P-11, PS 0
  OS: 163 days
  PFS: 159 days
Patient P-12, PS 1
  OS: 181 days
  PFS: 178 days
Patient P-13, PS 1
  OS: 61 days
  PFS: 36 days
Patient group PS (A) 0 and 1
  Kaplan Meier survival curve of OS versus BSC (FIG. 2): significant life prolongation effect
  Survival time extension compared to BSC examples: approximately 7 times
Patient group PS (A) 0 and 1, BSC examples 23.5 days
  Median of OS: 163 days
Patient group PS (B) 2 and 3, BSC examples 22 days
  Median of OS: 35 days
Patient group PS (B) 2 and 3, significant difference not confirmed
  Kaplan Meier survival curve of OS versus BSC (FIG. 3): tendency to prolong life
Patient group PS (C) 0 and 1
  OS without versus with peritoneal metastasis: significant life prolongation effect
Patient group PS (D) 2 and 3, significant difference not confirmed
  OS without versus with peritoneal metastasis: tendency to prolong life
